# Experimental data from patent US6855843B2, “Inhibitors of α4 mediated cell adhesion” (Tanabe Seiyaku Co., Ltd., priority 1998, dated 2005).
# Target: T1, α4β7 (adhesion of RPMI cells to CS-1) (Homo sapiens, UniProt P13612+P26010)
# T1 construct: endogenous in cells
# T1 sequence (P13612 34-1032): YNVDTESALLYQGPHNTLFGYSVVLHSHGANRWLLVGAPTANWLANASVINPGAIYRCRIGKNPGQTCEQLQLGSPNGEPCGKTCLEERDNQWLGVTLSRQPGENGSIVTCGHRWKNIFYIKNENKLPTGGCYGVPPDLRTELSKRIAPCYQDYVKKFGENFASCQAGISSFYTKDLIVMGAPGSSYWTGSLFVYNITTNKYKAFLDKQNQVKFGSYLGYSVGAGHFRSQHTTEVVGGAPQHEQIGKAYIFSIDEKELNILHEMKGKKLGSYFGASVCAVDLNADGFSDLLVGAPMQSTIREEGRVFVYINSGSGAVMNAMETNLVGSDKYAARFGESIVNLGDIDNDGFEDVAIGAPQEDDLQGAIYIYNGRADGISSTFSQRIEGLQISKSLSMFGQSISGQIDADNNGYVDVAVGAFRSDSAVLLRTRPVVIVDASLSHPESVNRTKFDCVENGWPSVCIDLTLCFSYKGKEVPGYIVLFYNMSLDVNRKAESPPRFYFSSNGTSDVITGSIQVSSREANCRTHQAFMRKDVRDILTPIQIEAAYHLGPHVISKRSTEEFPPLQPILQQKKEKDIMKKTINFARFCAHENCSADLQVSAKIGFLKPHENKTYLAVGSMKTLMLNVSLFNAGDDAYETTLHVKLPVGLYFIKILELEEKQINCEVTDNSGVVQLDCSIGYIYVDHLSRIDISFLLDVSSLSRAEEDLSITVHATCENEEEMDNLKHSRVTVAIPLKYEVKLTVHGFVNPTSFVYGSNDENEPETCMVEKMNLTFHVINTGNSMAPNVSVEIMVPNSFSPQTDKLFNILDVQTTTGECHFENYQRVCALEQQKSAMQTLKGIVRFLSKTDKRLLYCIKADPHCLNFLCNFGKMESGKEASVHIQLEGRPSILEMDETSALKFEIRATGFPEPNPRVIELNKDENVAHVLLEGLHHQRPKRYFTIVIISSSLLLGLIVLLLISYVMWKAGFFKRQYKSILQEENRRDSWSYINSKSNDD
# T1 sequence (P26010 20-798): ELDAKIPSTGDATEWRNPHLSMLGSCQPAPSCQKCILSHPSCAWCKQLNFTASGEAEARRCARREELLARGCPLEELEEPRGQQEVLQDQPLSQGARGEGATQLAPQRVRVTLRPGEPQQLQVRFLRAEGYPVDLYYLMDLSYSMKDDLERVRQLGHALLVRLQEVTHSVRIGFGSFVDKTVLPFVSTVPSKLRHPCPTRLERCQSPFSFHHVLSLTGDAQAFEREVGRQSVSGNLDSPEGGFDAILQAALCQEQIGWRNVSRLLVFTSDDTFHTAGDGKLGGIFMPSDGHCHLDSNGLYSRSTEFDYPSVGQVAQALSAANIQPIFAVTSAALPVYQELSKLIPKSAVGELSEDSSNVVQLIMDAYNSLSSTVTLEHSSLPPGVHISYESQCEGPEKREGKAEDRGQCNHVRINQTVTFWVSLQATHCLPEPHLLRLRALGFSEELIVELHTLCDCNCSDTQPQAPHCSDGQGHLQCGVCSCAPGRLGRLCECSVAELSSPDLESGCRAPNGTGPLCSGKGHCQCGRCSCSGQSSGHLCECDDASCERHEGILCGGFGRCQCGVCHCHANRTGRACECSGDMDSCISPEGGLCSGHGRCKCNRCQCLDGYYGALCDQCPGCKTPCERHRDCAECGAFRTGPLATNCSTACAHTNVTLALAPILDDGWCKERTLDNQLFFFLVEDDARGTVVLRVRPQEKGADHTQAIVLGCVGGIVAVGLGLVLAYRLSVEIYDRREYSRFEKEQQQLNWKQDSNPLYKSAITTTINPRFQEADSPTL
# Assay: RPMI-CS-1 cell adhesion assay
# Type: cell-based
# Conditions: adhesion of RPMI B-cell line (expresses α4β7) to CS-1 peptide coated microwells; read-out: RPMI-CS-1 IC50 value range
# Protocol: RPMI-CS-1 Cell Adhesion Assay:
# The test compounds were added in increasing concentrations to RPMI cells and then the cell-compound mixture was added to CS-1 coated microwells. The plates were incubated, washed and the percentage of attached cells were quantitated.
# The CS-1 derived peptide, […], and the scrambled control peptide, […], were synthesized at Tanabe Research Laboratories, USA, Inc. on a Beckman 990 synthesizer using t-Boc methodology. […] Microtiter plates were coated with 20 μg/ml human serum albumin (HSA) for 2 hours at room temperature, washed once with PBS and derivatized with 10 μg/ml SPDP for 1 hour. […] Unbound peptide was removed from the plates by washing with PBS. To block non-reacted sites, the plates were coated with 100 μl of a 2.5 mg/ml BSA solution in PBS for one hour at 37° C. 100 μl of RPMI cells (2.5×10^6 cells/ml) in Dulbecco's Modified Eagles Medium (DMEM) plus 0.25% ovalbumin were added to peptide coated dishes and incubated for 1 hour at 37° C. […] To do this, the enzyme substrate p-nitrophenyl-N-acetyl-β-D-glucoseaminide is dissolved at 7.5 mM in 0.1 M citrate buffer pH 5 and then mixed with an equal volume of 0.5% Triton X100. 50 μl of the substrate solution was added to the plates and the plates were incubated at 37° C. for 60 minutes.
# In this assay, IC50 value ranges (μM) are depicted by A, B, C and D. These ranges as follows. D>5≧C>1≧B>0.3≧A
row,SMILES,IC50
1,"O=C(NCCCO)c1ccccc1-c1ccc(C[C@H](NC(=O)c2c(Cl)cccc2Cl)C(=O)O)cc1 [Example 57, N-(2,6-Dichlorobenzoyl)-4-[2-[N-(3-hydroxypropyl)carbamoyl]phenyl]-L-phenylalanine]",1 to 5 µM
2,"CN(C)C(=O)c1ccccc1-c1ccc(C[C@H](NC(=O)c2c(Cl)cccc2Cl)C(=O)O)cc1 [Example 58, N-(2,6-Dichlorobenzoyl)-4-[2-(N,N-dimethylcarbamoyl)phenyl]-L-phenylalanine]",0.3 to 1 µM
3,"O=C(NCCN1CCOCC1)c1ccccc1-c1ccc(C[C@H](NC(=O)c2c(Cl)cccc2Cl)C(=O)O)cc1 [Example 59, N-(2,6-Dichlorobenzoyl)-4-[2-[N-(2-morpholinoethyl)carbamoyl]phenyl]-L-phenylalanine]",1 to 5 µM
4,NC(=O)c1ccccc1-c1ccc(C[C@H](NC(=O)c2c(Cl)cccc2Cl)C(=O)O)cc1 [Example 60],0.3 to 1 µM
5,"CS(=O)(=O)NC(=O)c1ccccc1-c1ccc(C[C@H](NC(=O)c2c(Cl)cccc2Cl)C(=O)O)cc1 [Example 61, N-(2,6-Dichlorobenzoyl)-4-[2-[(N-methanesulfonyl)carbamoyl]phenyl]-L-phenylalanine]",> 5 µM
6,"COc1ccccc1-c1ccc(C[C@H](NC(=O)c2ccc([N+](=O)[O-])cc2Cl)C(=O)O)cc1 [Example 62, N-(2-Chloro-4-nitrobenzoyl)-4-(2-methoxyphenyl)-L-phenylalanine]",< 0.3 µM
7,"COc1ccccc1-c1ccc(C[C@H](NC(=O)c2ccc(N)cc2Cl)C(=O)O)cc1 [Example 63, N-(4-Amino-2-chlorobenzoyl)-4-(2-methoxyphenyl)-L-phenylalanine]",0.3 to 1 µM
8,"COc1ccccc1-c1ccc(C[C@H](NC(=O)c2ccc(NS(C)(=O)=O)cc2Cl)C(=O)O)cc1 [Example 64, N-[2-Chloro-4-(methanesulfonylamino)benzoyl]-4-(2-methoxyphenyl)-L-phenylalanine]",< 0.3 µM
9,"COc1ccccc1-c1ccc(C[C@H](NC(=O)c2ccc(NS(=O)(=O)C(F)(F)F)cc2Cl)C(=O)O)cc1 [Example 65, N-[2-Chloro-4-(trifluoromethanesulfonylamino)benzoyl]-4-(2-methoxyphenyl)-L-phenylalanine]",< 0.3 µM
10,"CCOC(=O)Nc1ccc(C(=O)N[C@@H](Cc2ccc(-c3ccccc3OC)cc2)C(=O)O)c(Cl)c1 [Example 66, N-[2-Chloro-4-(ethoxycarbonylamino)benzoyl]-4-(2-methoxyphenyl)-L-phenylalanine]",< 0.3 µM
11,"COc1ccccc1-c1ccc(C[C@H](NC(=O)c2ccc(NC(C)=O)cc2Cl)C(=O)O)cc1 [Example 67, N-[2-Chloro-4-(acetylamino)benzoyl]-4-(2-methoxyphenyl)-L-phenylalanine]",0.3 to 1 µM
12,"COc1ccccc1-c1ccc(C[C@H](NC(=O)c2ccc(NS(=O)(=O)c3ccccc3)cc2Cl)C(=O)O)cc1 [Example 68, N-[2-Chloro-4-(benzenesulfonylamino)benzoyl]-4-(2-methoxyphenyl)-L-phenylalanine]",< 0.3 µM
13,"COc1ccccc1-c1ccc(C[C@H](NC(=O)c2ccc(NC(N)=O)cc2Cl)C(=O)O)cc1 [Example 69, N-(2-Chloro-4-ureidobenzoyl)-4-(2-methoxyphenyl)-L-phenylalanine]",< 0.3 µM
14,"CNC(=S)Nc1ccc(C(=O)N[C@@H](Cc2ccc(-c3ccccc3OC)cc2)C(=O)O)c(Cl)c1 [Example 70, N-[2-Chloro-4-(3-methylthioureido)benzoyl]-4-(2-methoxyphenyl)-L-phenylalanine]",< 0.3 µM
15,"COc1ccccc1-c1ccc(C[C@H](NC(=O)c2c(Cl)cccc2Cl)C(=O)O)cc1C(C)O (stereo partly drawn) [Example 73, N-(2,6-Dichlorobenzoyl)-3-(1-hydroxyethyl)-4-(2-methoxyphenyl)-L-phenylalanine]",< 0.3 µM
16,COc1ccc(-c2ccc(C[C@H](NC(=O)c3ccc(C(=O)O)cc3)C(=O)O)cc2)cc1 [Example 76],> 5 µM
17,COc1cccc(OC)c1-c1ccc(C[C@H](NC(=O)c2ccc(NS(C)(=O)=O)cc2Cl)C(=O)O)cc1 [Example 77],< 0.3 µM
18,COc1ccccc1-c1ccc(C[C@H](NC(=O)[C@H](C)c2ccccc2)C(=O)O)cc1 [Example 78],0.3 to 1 µM

row,SMILES,IC50
1,COc1ccccc1-c1ccc(C[C@H](NC(=O)c2c(Cl)cccc2Cl)C(=O)O)cc1NC(C)=O [Example 80],< 0.3 µM
2,O=C(O)c1ccc(C(=O)N[C@@H](Cc2ccc(-c3ccccc3O)cc2)C(=O)O)cc1 [Example 81],> 5 µM
3,COc1ccccc1-c1ccc(C[C@H](NC(=O)c2ccc(Cl)cc2Cl)C(=O)O)cc1 [Example 84],1 to 5 µM
4,COc1ccccc1-c1ccc(C[C@H](NC(=O)c2c(F)cccc2Cl)C(=O)O)cc1 [Example 86],< 0.3 µM
5,COc1ccccc1-c1ccc(C[C@H](NC(=O)c2ccccc2C(F)(F)F)C(=O)O)cc1 [Example 88],1 to 5 µM
6,COc1ccccc1-c1ccc(C[C@H](NC(=O)c2cccnc2Cl)C(=O)O)cc1 [Example 90],0.3 to 1 µM
7,COc1ccccc1-c1ccc(C[C@H](NC(=O)c2ccc(Cl)nc2)C(=O)O)cc1 [Example 93],> 5 µM
8,COc1ccccc1-c1ccc(C[C@H](NC(=O)c2ccc(C)nc2Cl)C(=O)O)cc1 [Example 94],1 to 5 µM
9,COc1ccccc1-c1ccc(C[C@H](NC(=O)C(=O)c2ccccc2)C(=O)O)cc1 [Example 95],1 to 5 µM
10,COc1ccccc1-c1ccc(C[C@H](NC(=O)c2ccccc2Br)C(=O)O)cc1 [Example 96],0.3 to 1 µM
11,CCCc1ccc(C(=O)N[C@@H](Cc2ccc(-c3ccccc3OC)cc2)C(=O)O)cc1 [Example 97],0.3 to 1 µM
12,COc1ccccc1-c1ccc(C[C@H](NC(=O)c2ccc([N+](=O)[O-])cc2)C(=O)O)cc1 [Example 101],> 5 µM
13,COc1ccccc1-c1ccc(C[C@H](NC(=O)c2ccc(CC(C)C)cc2)C(=O)O)cc1 [Example 102],> 5 µM
14,COc1ccccc1-c1ccc(C[C@H](NC(=O)c2cnccn2)C(=O)O)cc1 [Example 103],> 5 µM
15,COc1ccccc1-c1ccc(C[C@H](NC(=O)c2ccc(NC(C)=O)cc2)C(=O)O)cc1 [Example 104],> 5 µM
16,COc1ccccc1-c1ccc(C[C@H](NC(=O)c2ccccc2NC(C)=O)C(=O)O)cc1 [Example 105],> 5 µM
17,COc1ccccc1-c1ccc(C[C@H](NC(=O)c2ccccc2NC(=O)c2c(Cl)cccc2Cl)C(=O)O)cc1 [Example 106],1 to 5 µM
18,COc1ccccc1-c1ccc(C[C@H](NC(=O)c2ccc(NC(=O)c3c(Cl)cccc3Cl)cc2)C(=O)O)cc1 [Example 107],1 to 5 µM
